The values below come from patent publication US10688119B2, “Inhibitors of PCSK9 for treatment of lipoprotein metabolism disorders” (Aarhus Universitet, priority 2015, dated 2020).

One series concerns apoE−/− mice. The settings on record: 4-week treatment, cited from earlier work.
A further series concerns LDLR in HepG2 cells. As to the kind of experiment: LDLR levels in HepG2 cells by Western blot/densitometry (PCSK9 induced LDLR degradation).
The test system of a further series is LDLR in liver. As to the kind of experiment: liver LDLR levels in mice after intravenous PCSK9 (Western blot). Type of series: in vivo, mice (BALB6/cJRj). The settings on record: 1 hour after PCSK9 10 μg; heparin 50 U or suramin 300 μg co-injected; heparinase I 30 U infused before. The method, then:
To test the effect of enzymatic removal of heparan sulfate GAGs on PCSK9 activity in vivo 10-12 week-old male BALB6/cJRj mice were infused with heparinase I (30 U) administered through a tail vein catheter 5 min prior injection of PCSK9 (10 μg). In control mice the heparinase injection and/or the PCSK9 injection were replaced with an injection of 0.9% saline. During heparinase infusion, mice were lightly anaesthetized with isoflurane continuously administered through a mask.
Mice (BALB6/cJRj) were subjected to a single intravenous administration (tail vein) of 10 μg human recombinant PCSK9 alone or in combination with heparin (50 U). One hour post injection mice were sacrificed and liver tissues were collected.
For orientation: In western blotting, separated proteins are transferred to a membrane and probed.

A further series relates to HepG2 cells. As to the kind of experiment: uptake of Bodipy-labelled LDL particles in HepG2 cells. Type of series: cell-based, human. Particulars: suramin 200 μg/ml overnight, then 4 hours 10 ng/ml Bodipy LDL. The method, then: FIG. 12: Bar graphs showing the relative fluorescence signal in HepG2 cells after overnight incubation with suramin (200 μg/ml) following 4 hours incubation with 10 ng/ml LDL particles labeled with fluorescence dye Bodipy.

Another series concerns the target PCSK9 (Homo sapiens, UniProt Q8NBP7). As to the kind of experiment: Microscale Thermophoresis (MST) equilibrium binding to PCSK9. The settings on record: 100 nM labelled PCSK9, PBS+0.05% Tween-20; read-out: KD (affinity for PCSK9, MST). As for the experimental part: PCSK9 was labeled using the MO-L003 Monolith Blue-NHS labeling kit (NanoTemper Technologies) and a labeling efficiency of 1:1 molar ratio of protein to dye was achieved. PCSK9 was applied at a final concentration of 100 nM. […] MST measurements were performed in standard-treated capillaries (NanoTemper Technologies) on a Monolith NT.115 instrument (NanoTemper Technologies) using 20% LED and 80% MST power. Laser on and off times were 5 s and 35 s, respectively. Negative controls were performed using 100 nM of labelled PCSK9 in MST buffer in all 16 capillaries under the same conditions as mentioned above. […] For each binding partner, the sigmoidal dose-response curves were fitted with GraphPad Prism 6 to yield an average KD value.
In general terms: MST reads how a fluorescent partner responds to local heating, with and without ligand.

The test system of another series is J774 macrophages. Details: dose or concentration left out as unconfirmed. The settings on record: cited from earlier work.
The conditions of series [1]: in vivo; cited from earlier work.
For series [2] the following is noted: patients with elevated serum cholesterol, oral or subcutaneous Pentosan-polysulfate.
Description: The patient receives subcutaneous injections of 25-500 mg of the composition at intervals of 1-28 days.
A patient with elevated LDL cholesterol is prescribed a statin treatment. […] The patient is then prescribed a treatment with subcutaneous injections of 25-500 mg of a composition comprising a humanized antibody directed against the HSPG binding site in human PCSK9. The injections take place at intervals of 1-28 days.
A patient with elevated LDL cholesterol levels is prescribed administration of a small molecule compound that is designed to block the HSPG binding site in human PCSK9. The compound is administered orally at a dosis of 0.1-30 mg/kg.
In addition to the statin, the patient is administered a compound inhibiting binding of HSPGs to PCSK9. The administration occurs weekly and with a low dose (25-150 mg) of the compound in combination with statins.
Cholesterol levels are then measured.
Series [3] addresses T1, R93R96R97R104R105H139 PCSK9 mutant and variants (Homo sapiens, UniProt Q8NBP7, H139A/R104A/R105A/R93A/R96A/R97A).
T1 construct: expressed in transfected cells
Put plainly: immunoprecipitation of 35S-mutant PCSK9 and PCSK9 variants. Type of series: binding. Particulars: 500 μl conditioned hybridoma media. The method, then:
(§1) Western blot of GAPDH is shown as loading control. (B) Western Blot showing LDLR levels in liver of mice 1 hour afterintravenous administration of 10 μg PCSK9 alone or in combination with 50 U Heparin. 50 μg membrane preparations were loaded. As control is shown Western Blot for sortilin, a PCSK9 receptor previously shown not to be target of PCSK9 induced degradation. (C) Quantification of B) Bands were quantified by densitometry and dot plot show the individual level of each sample in percent of vehicle (0.9% NaCl) injected controls with mean values and SEM. […] (D) Autoradiography (16 h exposure) showing immunoprecipitation of native human ^35S labeled PCSK9 by serum (1 μl) from three rats immunized with DNA encoding rat PCSK9 with human HSPG binding domain. As negative controls were used preimmune serum from the animals. (E) Western Blot showing LDLR in HepG2 cells after overnight incubation with preimmune or immune IgG (1 μg/ml). […] (F) Autoradiography (16 h exposure) showing immunoprecipitation of human ^35S-PCSK9 by 24 individual mAbs (500 μl conditioned hybridoma media) selected in ELISA screening performed by Aldevron. […] (G) Bar graphs showing LDLR levels (average of 2-4 experiments with SEM) in HepG2 cells incubated with mAbs (1:10 dilution of conditioned hybridoma media) as analysed by Western Blot. Twelve individual mAb clones give an approximately two-fold increase LDLR. (H) Autoradiography (16 h exposure) showing immunoprecipitation of human ^35S-mutant PCSK9 (with R93R96R97R104R105H139 mutated to alanine residues) by 12 individual mAbs (500 μl conditioned hybridoma media) all showing PCSK9 inhibitory effect. As control was used a polyclonal antibody (pAb, AF3888 from R&D systems). […] As control was used R&D Systems AF3888 (pAb).
(§2) These 12 clones were tested to see whether they can bind an R93R96R97R104R105H139 PCSK9 mutant (FIG. 8H).

Series [4] deals with R93R96R97R104R105H139 PCSK9 mutant and variants. Described as above. Type of series: binding, human. Particulars: WT, R96R97, R104R105, R93R96R97H139, R93R96R97R104R105H139. As for the experimental part:
as §1, §2

“Also recorded” adds a separate entry of the source. Like-named read-outs stand apart in the source and are kept apart here.

PCSK9, sequence (Q8NBP7 153-692): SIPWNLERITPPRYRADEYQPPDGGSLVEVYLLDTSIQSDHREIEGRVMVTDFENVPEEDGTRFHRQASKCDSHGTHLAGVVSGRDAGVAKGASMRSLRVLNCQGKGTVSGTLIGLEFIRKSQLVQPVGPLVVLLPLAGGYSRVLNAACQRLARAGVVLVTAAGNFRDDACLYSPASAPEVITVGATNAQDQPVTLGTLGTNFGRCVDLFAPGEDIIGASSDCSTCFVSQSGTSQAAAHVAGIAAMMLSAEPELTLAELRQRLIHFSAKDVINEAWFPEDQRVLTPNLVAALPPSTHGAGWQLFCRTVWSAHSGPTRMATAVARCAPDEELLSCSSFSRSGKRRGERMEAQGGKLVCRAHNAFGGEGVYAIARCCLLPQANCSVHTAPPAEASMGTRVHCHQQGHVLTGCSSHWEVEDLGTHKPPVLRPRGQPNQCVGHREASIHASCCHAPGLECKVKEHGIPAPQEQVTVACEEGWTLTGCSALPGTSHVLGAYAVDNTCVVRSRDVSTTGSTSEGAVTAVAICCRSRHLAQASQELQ
Description for LDLR in HepG2 cells: Purified PCSK9 variants were tested in a cell assay to test their ability to induce degradation of LDLR compared to wild-type PCSK9. Induction of LDLR degradation was analyzed by incubation of HepG2 cells with wild type PCSK9 (WT) or the above PCSK9 mutants and LDLR levels were assessed by Western blotting. HepG2 cells were seeded at a density 250.000 cells per well in 12-well plates. […] Cells were harvested and lysed following 18 hours incubation and LDLR levels were assessed by Western blotting and quantification by densitometry.
The PCSK9 inhibitory effect of overnight incubation with suramin (0-200 μg/ml) was tested in HepG2 cells (FIG. 9 A-B).

Broadly, the Kd is the concentration at which binding is half-saturated. On to `Cc1ccc(C(=O)Nc2ccc(S(=O)(=O)O)c3cc(S(=O)(=O)O)cc(S(=O)(=O)O)c23)cc1NC(=O)c1cccc(NC(=O)Nc2cccc(C(=O)Nc3cc(C(=O)Nc4ccc(S(=O)(=O)O)c5cc(S(=O)(=O)O)cc(S(=O)(=O)O)c45)ccc3C)c2)c1` [suramin], for which the plaque size result was “reduce plaque size” in the series on apoE−/− mice (suramin 50 and PPADS 25 mg·kg-1·day-1, listed as Suramin); “reduces plaque size” in the series on apoE−/− mice (suramin 50 and PPADS 25 mg·kg-1·day-1). Also, in the series on LDLR in HepG2 cells (100 μM suramin vs mevastatin and simvastatin, 24 and 48 hours), the “LDLR level compared with statins” value is “higher level of LDLR that cells incubated with statins”. Besides, in the series on LDLR in HepG2 cells (suramin 200 μg/ml, overnight), the “LDLR level up regulated” value is on record as 15 times. In the series on LDLR in liver, the “liver LDLR level / PCSK9 induced degradation of LDLR in vivo” value is on record as “significantly higher level of LDLR”. For the same molecule, the “uptake of fluorescently labelled LDL” value in the series on HepG2 cells is listed as “increased cellular uptake of fluorescently labelled LDL particles; also recorded: increases the uptake of LDL two-fold”. The Kd at PCSK9 came to 190 µM. Also, the “block of UDP effect on iNOS and interleukin-6” value in the series on J774 macrophages is on record as “blocked”.
Regarding pentosan [pentosan sulfate], the “plateau of cellular LDLR compared to vehicle control” value in the series with LDLR in HepG2 cells (dose-dependent, HepG2 cells) is “around 400%”. At PCSK9, the Kd is 381 µM. Moreover, the “median time of absorption from the digestive tract after an oral dose” value in series [1] is 2 h. For the same molecule, in [2], the serum cholesterol levels entry is listed as “decreased serum cholesterol levels”.

B1: mAb 5E11: rat monoclonal antibody against the HSPG binding domain; VH SEQ ID NO: 7, VK SEQ ID NO: 5 (antibody, V domains shown)
VH: EVQLQESGPGLVKPSQSLSLTCSVTGYTITSGYDWSWIRRFPGNTMEWMGDISYSGSTNYNPSLKSRVSITRDTSKNQFFLQLNSVTTGDTATYYCAKLPGWGQGTLVTVSS
VL: DVVLTQTPVFLSVTLGDQTSISCRSSQSLEYSDGYTYLEWYLQKPGQSPQLLIYEVSNRFSGVPDRFIGSGSGTDFTLKISRVEPEDLGVYYCFQGTHDPLTFGSGTKLEIK
For the molecule B1, the “binding of R93R96R97R104R105H139 PCSK9 mutant (immunoprecipitation)” value in series [3] is recorded as “not able to bind this mutant”. Further, the “immunoprecipitation of 35S-PCSK9 WT and variants (epitope)” value in series [4] is “recognize only WT PCSK9; also recorded: recognize epitopes within the HSPG binding domain”. Besides, the “increase of cellular LDLR” value in the series on LDLR in HepG2 cells (mAbs, 1:10 dilution of conditioned hybridoma media) is recorded as “approximately two fold”.
